Assay results: the supplement of paper PMC10307832

Legend:
Test in all cases: relative viability (nuclei count vs DMSO), 5 days (fraction); higher = more cells survive
NCI-H522 = test system: NCI-H522
In short: (§1)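 Relative viability is defined as nuclei in treated wells over nuclei in vehicle wells. Duplicate plates were run and medians reported. Lung cancer cell lines in 1536-well plates were dosed by pin tool one day after seeding, with one drug or with a fixed anchor-drug dose plus five library-drug doses (not always all listed) in √10 steps, and nuclei were counted after 5 days.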

NCI-H1623 = test system: NCI-H1623
In short: as §1

NCI-H520 = test system: NCI-H520
In short: as §1

NCI-H1651 = test system: NCI-H1651
In short: as §1

RERF-LC-KJ = test system: RERF-LC-KJ
In short: as §1

In the case of `C=C1C(=O)O[C@@H](CCCCCCCC)[C@@H]1C(=O)O` [C-75] + CCNC(=O)c1noc(-c2cc(C(C)C)c(O)cc2O)c1-c1ccc(CN2CCOCC2)cc1 [Luminespib] (partner 0.01 µM), the relative viability (NCI-H522; first compound 0.08 µM) is reported as 1.06, the relative viability (NCI-H522; first compound 0.253 µM) is reported as 1.04 and the relative viability (NCI-H522; first compound 0.8 µM) is reported as 1.06. The relative viability (NCI-H522; first compound 2.53 µM) was 0.904, the relative viability (NCI-H522; first compound 8 µM) was 0.911 and the relative viability (NCI-H1623; first compound 0.08 µM) was 0.436. The relative viability (NCI-H1623; first compound 0.253 µM) was 0.536, the relative viability (NCI-H1623; first compound 0.8 µM) was 0.585 and the relative viability (NCI-H1623; first compound 2.53 µM) was 0.505. For the same compound, the relative viability (NCI-H1623; first compound 8 µM) was 0.475, the relative viability (NCI-H520; first compound 0.08 µM) was 0.233 and the relative viability (NCI-H520; first compound 0.253 µM) was 0.214. The relative viability (NCI-H520; first compound 0.8 µM) was 0.217, the relative viability (NCI-H520; first compound 2.53 µM) was 0.208 and the relative viability (NCI-H520; first compound 8 µM) was 0.331. The relative viability (NCI-H1651; first compound 0.08 µM) was 0.817, the relative viability (NCI-H1651; first compound 0.253 µM) was 0.939 and the relative viability (NCI-H1651; first compound 0.8 µM) was 0.829. For the same compound, the relative viability (NCI-H1651; first compound 2.53 µM) was 0.672, the relative viability (NCI-H1651; first compound 8 µM) was 0.934 and the relative viability (RERF-LC-KJ; first compound 0.08 µM) was 1.31. The relative viability (RERF-LC-KJ; first compound 0.253 µM) was 1.22, the relative viability (RERF-LC-KJ; first compound 0.8 µM) was 1.23 and the relative viability (RERF-LC-KJ; first compound 2.53 µM) was 1.08. The relative viability (RERF-LC-KJ; first compound 8 µM) was 1.11.
`CC1(C)CCC(c2ccc(Cl)cc2)=C(CN2CCN(c3ccc(C(=O)NS(=O)(=O)c4ccc(N[C@H](CCN5CCOCC5)CSc5ccccc5)c(S(=O)(=O)C(F)(F)F)c4)cc3)CC2)C1` [Navitoclax] + CCNC(=O)c1noc(-c2cc(C(C)C)c(O)cc2O)c1-c1ccc(CN2CCOCC2)cc1 [Luminespib] (partner 0.01 µM) showed a relative viability (NCI-H522; first compound 0.005 µM) of 1.07, a relative viability (NCI-H522; first compound 0.01581 µM) of 1.25 and a relative viability (NCI-H522; first compound 0.05 µM) of 1.04. It also gave a relative viability (NCI-H522; first compound 0.1581 µM) of 1.19, a relative viability (NCI-H522; first compound 0.5 µM) of 1.36 and a relative viability (NCI-H1623; first compound 0.005 µM) of 0.478. The relative viability (NCI-H1623; first compound 0.01581 µM) was 0.631, the relative viability (NCI-H1623; first compound 0.05 µM) was 0.463 and the relative viability (NCI-H1623; first compound 0.1581 µM) was 0.515. It also gave a relative viability (NCI-H1623; first compound 0.5 µM) of 0.471, a relative viability (NCI-H520; first compound 0.005 µM) of 0.249 and a relative viability (NCI-H520; first compound 0.01581 µM) of 0.234. The relative viability (NCI-H520; first compound 0.05 µM) was 0.268, the relative viability (NCI-H520; first compound 0.1581 µM) was 0.235 and the relative viability (NCI-H520; first compound 0.5 µM) was 0.229. For the same compound, the relative viability (NCI-H1651; first compound 0.005 µM) was 0.966, the relative viability (NCI-H1651; first compound 0.01581 µM) was 0.971 and the relative viability (NCI-H1651; first compound 0.05 µM) was 0.563. It also gave a relative viability (NCI-H1651; first compound 0.1581 µM) of 0.809, a relative viability (NCI-H1651; first compound 0.5 µM) of 0.712 and a relative viability (RERF-LC-KJ; first compound 0.005 µM) of 1.32. It also gave a relative viability (RERF-LC-KJ; first compound 0.01581 µM) of 1.23, a relative viability (RERF-LC-KJ; first compound 0.05 µM) of 1.17 and a relative viability (RERF-LC-KJ; first compound 0.1581 µM) of 1.18. For the same compound, the relative viability (RERF-LC-KJ; first compound 0.5 µM) was 1.04.
`CC1(C)CCC(c2ccc(Cl)cc2)=C(CN2CCN(c3ccc(C(=O)NS(=O)(=O)c4ccc(N[C@H](CCN5CCOCC5)CSc5ccccc5)c(S(=O)(=O)C(F)(F)F)c4)cc3)CC2)C1` [Navitoclax] + Cc1nc(Nc2ncc(C(=O)Nc3c(C)cccc3Cl)s2)cc(N2CCN(CCO)CC2)n1 [Dasatinib] (partner 0.075 µM) was tested, and the relative viability (NCI-H522; first compound 0.005 µM) was 0.685, the relative viability (NCI-H522; first compound 0.01581 µM) was 1.02 and the relative viability (NCI-H522; first compound 0.05 µM) was 1.17. The relative viability (NCI-H522; first compound 0.1581 µM) was 1.06, the relative viability (NCI-H522; first compound 0.5 µM) was 0.816 and the relative viability (NCI-H1623; first compound 0.005 µM) was 0.546. It also gave a relative viability (NCI-H1623; first compound 0.01581 µM) of 0.578, a relative viability (NCI-H1623; first compound 0.05 µM) of 0.518 and a relative viability (NCI-H1623; first compound 0.1581 µM) of 0.539. It also gave a relative viability (NCI-H1623; first compound 0.5 µM) of 0.618, a relative viability (NCI-H520; first compound 0.01581 µM) of 0.205 and a relative viability (NCI-H520; first compound 0.05 µM) of 0.272. For the same compound, the relative viability (NCI-H520; first compound 0.1581 µM) was 0.201, the relative viability (NCI-H520; first compound 0.5 µM) was 0.258 and the relative viability (NCI-H1651; first compound 0.005 µM) was 0.37. The relative viability (NCI-H1651; first compound 0.01581 µM) was 0.41, the relative viability (NCI-H1651; first compound 0.05 µM) was 0.308 and the relative viability (NCI-H1651; first compound 0.1581 µM) was 0.455. The relative viability (NCI-H1651; first compound 0.5 µM) was 0.456, the relative viability (RERF-LC-KJ; first compound 0.005 µM) was 0.787 and the relative viability (RERF-LC-KJ; first compound 0.01581 µM) was 0.757. The relative viability (RERF-LC-KJ; first compound 0.05 µM) was 0.817, the relative viability (RERF-LC-KJ; first compound 0.1581 µM) was 0.823 and the relative viability (RERF-LC-KJ; first compound 0.5 µM) was 0.918.
